The values below are quoted from earlier work in patent US10779561B2, “Resveratrol solubility” (AQUANOVA AG, priority 2016, dated 2020).

The structures appear in SMILES notation.

Series [1] relates to rats. The note with it: several in-vivo studies in rats.
Series [2] concerns NFκ-b. The note with it: in-vitro conditions.

Take `Oc1ccc(C=Cc2cc(O)cc(O)c2)cc1` [resveratrol]: in series [1], the neuro-protective effect result is listed as “neuro-protective effect”. Also, the “effect on nuclear translocation of NFκ-b” value in series [2] is on record as “inhibits the nuclear translocation of NFκ-b”.
